Measurements reported in PubChem BioAssay AID588807 (The Scripps Research Institute Molecular Screening Center, 2011).
Active and inactive are the calls of the source. No rule for the calls is given here.

Experiments:
Assay in all cases: competitive ABPP of Abhd10 versus anti-targets – biochemical, fluorescence, gel-based, mouse proteome, selectivity assay for PME-1 inhibitor project, late-stage follow-up (AID 588807)
APEH = conditions: anti-target, stronger effect = higher value
Kiaa1363 = conditions: anti-target, at 10 µM, stronger effect = higher value
Magl = conditions: anti-target, at 10 µM, stronger effect = higher value
[1] = target: Monoacylglycerol lipase ABHD6 (Mus musculus) (UniProt Q8R2Y0); conditions: anti-target, stronger effect = higher value
Monoacylglycerol lipase ABHD6 (Mus musculus), sequence (Q8R2Y0 whole entry, looked up): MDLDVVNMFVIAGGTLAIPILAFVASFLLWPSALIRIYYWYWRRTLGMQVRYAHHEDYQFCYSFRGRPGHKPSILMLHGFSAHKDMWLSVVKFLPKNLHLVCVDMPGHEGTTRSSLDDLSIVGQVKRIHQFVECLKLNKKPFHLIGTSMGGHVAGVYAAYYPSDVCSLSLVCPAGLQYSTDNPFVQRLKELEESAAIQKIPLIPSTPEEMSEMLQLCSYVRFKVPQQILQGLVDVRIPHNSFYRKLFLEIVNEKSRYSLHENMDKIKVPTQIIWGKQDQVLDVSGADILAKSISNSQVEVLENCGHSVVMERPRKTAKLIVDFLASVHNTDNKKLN

[2] = target: Palmitoyl-protein thioesterase ABHD10, mitochondrial (Mus musculus) (UniProt Q6PE15); conditions: stronger effect = higher value
Palmitoyl-protein thioesterase ABHD10, mitochondrial (Mus musculus), sequence (Q6PE15 whole entry, looked up): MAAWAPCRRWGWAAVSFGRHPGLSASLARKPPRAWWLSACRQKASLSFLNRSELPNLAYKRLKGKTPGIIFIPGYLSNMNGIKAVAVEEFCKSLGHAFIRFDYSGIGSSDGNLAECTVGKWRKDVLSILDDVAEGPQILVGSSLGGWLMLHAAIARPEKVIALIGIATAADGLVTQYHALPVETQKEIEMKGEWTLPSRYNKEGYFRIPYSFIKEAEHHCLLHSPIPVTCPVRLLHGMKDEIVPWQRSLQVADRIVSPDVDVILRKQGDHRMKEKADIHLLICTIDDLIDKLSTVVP

[3] = target: Prolyl endopeptidase (Mus musculus) (UniProt Q9QUR6); conditions: PREP, anti-target, stronger effect = higher value
Prolyl endopeptidase (Mus musculus), sequence (Q9QUR6 whole entry, looked up): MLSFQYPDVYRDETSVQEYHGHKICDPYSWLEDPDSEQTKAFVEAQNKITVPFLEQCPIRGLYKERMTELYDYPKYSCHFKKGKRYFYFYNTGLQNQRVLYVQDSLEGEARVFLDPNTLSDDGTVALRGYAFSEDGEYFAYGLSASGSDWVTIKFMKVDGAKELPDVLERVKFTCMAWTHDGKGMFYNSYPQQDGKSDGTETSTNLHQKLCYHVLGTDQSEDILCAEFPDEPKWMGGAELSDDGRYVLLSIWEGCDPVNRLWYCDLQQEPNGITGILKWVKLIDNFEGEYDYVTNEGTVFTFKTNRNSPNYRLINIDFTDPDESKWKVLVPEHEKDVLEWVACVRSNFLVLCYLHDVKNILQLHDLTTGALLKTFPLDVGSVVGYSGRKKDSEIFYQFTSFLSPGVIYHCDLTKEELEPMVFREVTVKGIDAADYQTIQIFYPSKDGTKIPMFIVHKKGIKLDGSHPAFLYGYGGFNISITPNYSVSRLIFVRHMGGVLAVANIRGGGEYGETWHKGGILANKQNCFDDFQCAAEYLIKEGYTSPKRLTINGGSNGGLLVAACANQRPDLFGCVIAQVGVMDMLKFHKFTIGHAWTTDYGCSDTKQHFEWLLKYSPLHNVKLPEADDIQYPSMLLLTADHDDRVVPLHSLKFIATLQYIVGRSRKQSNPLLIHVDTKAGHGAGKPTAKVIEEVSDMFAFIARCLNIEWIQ

inhibition (APEH; at 10 µM) | inhibition (Kiaa1363) | inhibition (Magl) | inhibition ([1]; at 10 µM) | inhibition ([2]; at 10 µM) | inhibition ([2]; inhibition, at 0.1 µM) [%] | inhibition ([2]; inhibition, at 1 µM) [%] | inhibition ([3]; at 10 µM) | inhibition (APEH; inhibition, at 1 µM) [%] | inhibition ([3]; inhibition, at 1 µM) [%] | inhibition (APEH; inhibition, at 0.1 µM) [%] | inhibition ([1]; inhibition, at 1 µM) [%] | inhibition ([1]; inhibition, at 0.1 µM) [%] | inhibition ([3]; inhibition, at 0.1 µM) [%] | Compound
0% (inactive) | 0% (inactive) | 0% (inactive) | 10% (inactive) | 85% (inactive) | 30 | 30 | 0% (inactive) | – | – | – | – | – | – | CC[C@]1(c2cccc(C)c2)C(=O)N(C(=O)OC(C)C)N1C(=O)OC(C)C
100% (inactive) | 15% (inactive) | 10% (inactive) | 0% (inactive) | 90% (inactive) | 40 | 85 | 0% (inactive) | 20 | – | – | – | – | – | CC[C@@]1(c2cccc(F)c2)C(=O)N(C(=O)OC(C)C)N1C(=O)OC(C)C
55% (inactive) | 35% (inactive) | 20% (inactive) | 45% (inactive) | 100% (inactive) | 10 | 95 | 65% (inactive) | – | 20 | – | – | – | – | C=CCOC(=O)N1C(=O)[C@@](CC)(c2cccc(C)c2)N1C(=O)OC
15% (inactive) | 0% (inactive) | 0% (inactive) | 50% (inactive) | 95% | 90 | 90 | 75% (inactive) | – | 30 | – | – | – | – | CC[C@@]1(c2ccc(C)cc2)C(=O)N(C(=O)OC(C)C)N1C(=O)OC(C)C
0% (inactive) | 0% (inactive) | 0% (inactive) | 0% (inactive) | 60% (inactive) | 10 | 25 | 30% (inactive) | – | 10 | – | – | – | – | CC[C@@]1(c2cccc(C)c2)C(=O)N(C(=O)OC(C)C)N1C(=O)OC
85% (inactive) | 0% (inactive) | 0% (inactive) | 65% (inactive) | 100% | 70 | 90 | 70% (inactive) | 10 | 10 | 10 | – | – | – | CC[C@@]1(c2ccccc2)C(=O)N(C(=O)OC(C)C)N1C(=O)OC(C)C
95% (inactive) | 0% (inactive) | 10% (inactive) | 10% (inactive) | 100% (inactive) | – | 70 | 40% (inactive) | 95 | – | – | – | – | – | CC[C@@]1(c2ccc(OC)cc2)C(=O)N(C(=O)OC)N1C(=O)OC
45% (inactive) | 0% (inactive) | 0% (inactive) | 0% (inactive) | 100% | 60 | 80 | 0% (inactive) | – | – | – | – | – | – | CCOC(=O)N1C(=O)[C@@](C)(c2cccc(C)c2)N1C(=O)OCC
100% (inactive) | 0% (inactive) | 0% (inactive) | 0% (inactive) | 45% (inactive) | – | – | 0% (inactive) | 30 | – | – | – | – | – | CC[C@]1(c2ccc(C)cc2)C(=O)N(C(=O)OC(C)C)N1C(=O)OC(C)C
40% (inactive) | 10% (inactive) | 0% (inactive) | 35% (inactive) | 90% (inactive) | 10 | 70 | 25% (inactive) | – | – | – | 10 | – | – | C=CCOC(=O)N1C(=O)[C@@](CC)(c2ccccc2)N1C(=O)OC
55% (inactive) | 35% (inactive) | 50% (inactive) | 80% (inactive) | 100% (inactive) | 30 | 90 | 70% (inactive) | – | 10 | – | – | – | – | C=CCOC(=O)N1C(=O)[C@@](CC)(c2ccccc2)N1C(=O)OCC=C
0% (inactive) | 25% (inactive) | 80% (inactive) | 85% (inactive) | 95% | 95 | 95 | 65% (inactive) | – | 25 | – | 25 | 10 | – | CCCOC(=O)N1C(=O)[C@@](CC)(c2ccc(C)cc2)N1C(=O)OCCC
0% (inactive) | 0% (inactive) | 0% (inactive) | 0% (inactive) | 85% (inactive) | – | 20 | 0% (inactive) | – | – | – | – | – | – | CC[C@]1(c2cccc(C)c2)C(=O)N(C(=O)OC)N1C(=O)OC
45% (inactive) | 25% (inactive) | 45% (inactive) | 50% (inactive) | 100% | 60 | 100 | 50% (inactive) | – | – | – | – | – | – | CC[C@@]1(c2ccc(Cl)cc2)C(=O)N(C(=O)OC)N1C(=O)OC
90% (inactive) | 20% (inactive) | 10% (inactive) | 65% (inactive) | 95% (inactive) | 45 | 90 | 90% (inactive) | – | – | – | – | – | – | CC[C@@]1(c2cccc(Cl)c2)C(=O)N(C(=O)OC)N1C(=O)OC
20% (inactive) | 0% (inactive) | 0% (inactive) | 75% (inactive) | 100% (inactive) | 20 | 95 | 70% (inactive) | – | 35 | – | – | – | 20 | CC[C@@]1(c2cccc(C)c2)C(=O)N(C(=O)OC)N1C(=O)OC(C)C
0% (inactive) | 0% (inactive) | 0% (inactive) | 0% (inactive) | 90% (inactive) | – | 65 | 0% (inactive) | – | – | – | – | – | – | CC[C@@]1(c2cccc(OC)c2)C(=O)N(C(=O)OC)N1C(=O)OC
